Measurements: patent US7598255B2 (Janssen Pharmaceutica NV, priority 2005, dated 2009)
Counter-ions that a name gives are not always drawn.

Legend:
rat 5-HT7a receptor = rat 5-HT7a receptor (Rattus norvegicus, UniProt P32305); assay: Affinity for 5-HT7 receptor binding sites, radioligand binding with [3H]5-CT; conditions: membranes of HEK-293 cells with rat 5-HT7a, 1 nM [3H]5-CT
Procedure, shortened: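 Competition binding on membranes from HEK-293 cells stably expressing rat 5-HT7a, 135 μg protein/mL in 50 mM Tris-HCl pH 7.5, 5 mM EDTA. Incubated 60 min at RT with 1 nM [3H]5-CT and increasing compound concentrations; nonspecific binding with 10 μM 5-HT. Filtration and scintillation counting, in triplicate.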

5-HT2B receptor [1] = target: T1, 5-HT2B receptor (Homo sapiens, UniProt P41595); assay: Affinity for 5HT2 receptor binding sites, h5-HT2B, [3H]mesulergine; conditions: CHO h5-HT2B membranes
T1 sequence (P41595 whole entry): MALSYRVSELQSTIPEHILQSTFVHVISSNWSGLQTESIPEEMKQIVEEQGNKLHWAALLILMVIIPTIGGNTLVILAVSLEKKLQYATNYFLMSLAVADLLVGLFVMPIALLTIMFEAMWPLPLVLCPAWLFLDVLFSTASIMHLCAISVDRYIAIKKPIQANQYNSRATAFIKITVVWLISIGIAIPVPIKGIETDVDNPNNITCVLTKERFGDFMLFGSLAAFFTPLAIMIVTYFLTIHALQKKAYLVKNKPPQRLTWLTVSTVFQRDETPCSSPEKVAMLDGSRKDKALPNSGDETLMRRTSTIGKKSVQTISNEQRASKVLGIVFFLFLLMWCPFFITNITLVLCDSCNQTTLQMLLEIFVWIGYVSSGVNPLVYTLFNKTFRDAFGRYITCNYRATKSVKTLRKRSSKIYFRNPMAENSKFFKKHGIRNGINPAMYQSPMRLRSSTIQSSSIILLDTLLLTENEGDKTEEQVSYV
Method: Sigmoidal inhibition curves were generated and fitted by nonlinear regression analysis (GraphPad Prism).
Receptor binding was performed using the human recombinant 5-HT2A (GB: X57830), 5-HT2B (GB: Z36748) and 5-HT2C (GB: M81778) receptors. The affinity of the compounds for the 3 different human 5-HT2 receptor subtypes was evaluated by competitive radioligand binding assays using [^3H]ketanserin (h5-HT2A) or [^3H]mesulergine (h5-HT2B and h5-HT2C). The assays were performed on membranes prepared from NIH3T3 stably transfected with h5-HT2A or CHO stably transfected with h5-HT2B and h5-HT2C.

[2] = target: T2, human recombinant 5-HT2C receptor (Homo sapiens, UniProt P28335); assay: Affinity for 5HT2 receptor binding sites, h5-HT2C, [3H]mesulergine; conditions: CHO h5-HT2C membranes
T2 sequence (P28335 33-458): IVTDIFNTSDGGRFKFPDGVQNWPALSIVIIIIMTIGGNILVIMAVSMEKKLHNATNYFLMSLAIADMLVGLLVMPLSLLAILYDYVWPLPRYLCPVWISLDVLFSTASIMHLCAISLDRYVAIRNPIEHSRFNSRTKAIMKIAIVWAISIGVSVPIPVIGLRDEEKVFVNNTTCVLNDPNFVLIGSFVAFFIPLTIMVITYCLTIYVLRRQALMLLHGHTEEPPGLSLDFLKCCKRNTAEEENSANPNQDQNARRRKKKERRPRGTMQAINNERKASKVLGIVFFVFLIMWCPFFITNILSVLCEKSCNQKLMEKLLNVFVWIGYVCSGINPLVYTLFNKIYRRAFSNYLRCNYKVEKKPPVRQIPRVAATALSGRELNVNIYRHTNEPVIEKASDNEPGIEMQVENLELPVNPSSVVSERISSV

5-HT2A receptor [3] = target: T3, 5-HT2A receptor (Homo sapiens, UniProt P28223); assay: In vitro functional assay for 5-HT2 receptor (intracellular calcium, FLIPR), 5-HT2A; format: cell-based; conditions: same cell lines as receptor binding, read-out: pKb 5-HT2A (converted)
T3 sequence (P28223 whole entry): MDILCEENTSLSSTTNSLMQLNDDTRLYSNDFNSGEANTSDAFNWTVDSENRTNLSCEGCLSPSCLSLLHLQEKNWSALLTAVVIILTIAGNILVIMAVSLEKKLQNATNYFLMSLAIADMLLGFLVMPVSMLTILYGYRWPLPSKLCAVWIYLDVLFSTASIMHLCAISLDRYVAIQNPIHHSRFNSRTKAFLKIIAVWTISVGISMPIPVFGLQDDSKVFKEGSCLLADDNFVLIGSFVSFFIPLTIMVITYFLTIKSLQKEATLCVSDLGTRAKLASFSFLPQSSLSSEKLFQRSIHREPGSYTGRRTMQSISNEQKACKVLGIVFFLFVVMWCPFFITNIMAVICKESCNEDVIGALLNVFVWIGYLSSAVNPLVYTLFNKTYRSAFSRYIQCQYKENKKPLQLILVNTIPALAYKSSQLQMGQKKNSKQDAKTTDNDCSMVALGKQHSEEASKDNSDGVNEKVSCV
From the text: The 5-HT2 receptors are linked to the Gq family of G proteins and to subsequent activation of phospholipase C, induction of phosphoinositide metabolism and to an increase in intracelular calcium concentration. The same cell lines as described in the previous section (receptor binding) were used for the FLIPR experiments.

5-HT2A receptor [4] = target: T3, 5-HT2A receptor; assay: Affinity for 5-HT2A receptor binding sites, radioligand binding with [3H]ketanserin; conditions: read-out: Ki 5-HT2A, rat cortex membranes (assay 2) or NIH3T3 h5-HT2A membranes (assay 3), table does not say which
5-HT2B receptor [5] = target: T1, 5-HT2B receptor; assay: In vitro functional assay for 5-HT2 receptor (intracellular calcium, FLIPR), 5-HT2B; format: cell-based; conditions: same cell lines as receptor binding, read-out: pKb 5-HT2B (converted)
Method: In vitro functional properties of these compounds on the different 5-HT2 receptor substypes were determined using fluorometric imaging plate reader (FLIPR) based calcium assay as previously described (Porter, R. H. et al. Br. J. Pharmacol. 1999, 128, 13-20; Jerman, J. C. et al. Eur. J. Pharmacol. 2001, 414, 23-30). The 5-HT2 receptors are linked to the Gq family of G proteins and to subsequent activation of phospholipase C, induction of phosphoinositide metabolism and to an increase in intracelular calcium concentration. The same cell lines as described in the previous section (receptor binding) were used for the FLIPR experiments.

[6] = target: human recombinant 5-HT6 receptor (Homo sapiens, UniProt P50406); assay: Affinity for 5-HT6 receptor binding sites, [3H]LSD; conditions: HEK-293 h5-HT6 membranes
Sequence of human recombinant 5-HT6 receptor (P50406 whole entry): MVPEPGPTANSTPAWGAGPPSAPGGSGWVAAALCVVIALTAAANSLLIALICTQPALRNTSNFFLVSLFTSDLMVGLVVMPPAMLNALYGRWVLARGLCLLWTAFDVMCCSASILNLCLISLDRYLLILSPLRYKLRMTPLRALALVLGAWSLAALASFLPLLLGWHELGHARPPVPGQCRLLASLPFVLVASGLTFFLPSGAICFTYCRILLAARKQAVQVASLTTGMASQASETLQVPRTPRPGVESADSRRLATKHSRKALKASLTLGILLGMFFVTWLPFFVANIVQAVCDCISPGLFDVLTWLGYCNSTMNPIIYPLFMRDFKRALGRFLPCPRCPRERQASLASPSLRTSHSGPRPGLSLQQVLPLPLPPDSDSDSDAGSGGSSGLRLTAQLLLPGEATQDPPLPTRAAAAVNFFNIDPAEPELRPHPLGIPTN

Sequence of rat 5-HT7a receptor (P32305 whole entry): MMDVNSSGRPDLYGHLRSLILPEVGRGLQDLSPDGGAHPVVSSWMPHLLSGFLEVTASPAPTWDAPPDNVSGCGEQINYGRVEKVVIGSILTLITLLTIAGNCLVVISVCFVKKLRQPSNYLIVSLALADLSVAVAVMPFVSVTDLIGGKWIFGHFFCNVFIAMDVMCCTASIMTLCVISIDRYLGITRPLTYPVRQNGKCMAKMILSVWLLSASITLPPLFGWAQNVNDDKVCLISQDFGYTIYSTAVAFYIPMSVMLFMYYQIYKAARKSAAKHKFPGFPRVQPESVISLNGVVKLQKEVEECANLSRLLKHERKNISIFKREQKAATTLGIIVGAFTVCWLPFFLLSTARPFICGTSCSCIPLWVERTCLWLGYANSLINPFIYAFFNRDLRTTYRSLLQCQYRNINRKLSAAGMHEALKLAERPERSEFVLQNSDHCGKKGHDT

Row | Structure (SMILES) | Ki (rat 5-HT7a receptor) [nM] | Ki (5-HT2B receptor [1]) [nM] | Ki [2] [nM] | Kb (5-HT2A receptor [3]) [nM] | Ki (5-HT2A receptor [4]) [nM] | Kb (5-HT2B receptor [5]) [nM] | Ki [6] [nM]
1 | Fc1ccc(Cc2nc3c(c(-c4ccc(F)cc4)n2)CNCC3)cc1 [Example 13, 2-(4-Fluoro-benzyl)-4-(4-fluoro-phenyl)-5,6,7,8-tetrahydro-pyrido[4,3-d]pyrimidine] | > 10000 | 2200 | 1000 | 79.4 | 12.5 |  | 
2 | Fc1ccc(-c2nc(C3CCCC3)nc3c2CNCC3)cc1 [Example 17, 2-Cyclopentyl-4-(4-fluoro-phenyl)-5,6,7,8-tetrahydro-pyrido[4,3-d]pyrimidine] | > 10000 | 250 | 70 | 7.94 | 4 | 3980 | 
3 | Cc1ccc(-c2nc(C3CCCC3)nc3c2CNCC3)cc1 [Example 18, 2-Cyclopentyl-4-p-tolyl-5,6,7,8-tetrahydro-pyrido[4,3-d]pyrimidine] | 525 | 80 | 60 | 25.1 | 10 | 200 | 330
4 | CC(C)c1nc2c(c(-c3ccc(F)cc3)n1)CNCC2 [Example 21, 4-(4-Fluoro-phenyl)-2-isopropyl-5,6,7,8-tetrahydro-pyrido[4,3-d]pyrimidine hydrochloride] | > 10000 | 1190 | 1170 | 31.6 | 25 |  | > 10000
5 | CC(C)c1nc2c(c(-c3ccc(F)cc3)n1)CCNCC2 [Example 50, 4-(4-Fluoro-phenyl)-2-isopropyl-6,7,8,9-tetrahydro-5H-pyrimido[4,5-d]azepine hydrochloride] | 240 | 20 | 80 |  | 3.7 | 5.01 | 260
6 | Fc1ccc(Cc2nc3c(c(-c4ccc(F)cc4)n2)CCNCC3)cc1 [Example 57, 2-(4-Fluoro-benzyl)-4-(4-fluoro-phenyl)-6,7,8,9-tetrahydro-5H-pyrimido[4,5-d]azepine] | 550 | 40 | 50 | 6.31 | 0.7 | 126 | 80
7 | CN1CCc2nc(Cc3ccc(F)cc3)nc(-c3ccc(F)cc3)c2CC1 [Example 62, 2-(4-Fluoro-benzyl)-4-(4-fluoro-phenyl)-7-methyl-6,7,8,9-tetrahydro-5H-pyrimido[4,5-d]azepine] | 5270 | 21 | 21 | 1.58 | 0.75 | 50.1 | 27
8 | C=C1CN(C)CCc2c1nc(Cc1ccc(F)cc1)nc2-c1ccc(F)cc1 [Example 63, 2-(4-Fluoro-benzyl)-4-(4-fluoro-phenyl)-7-methyl-9-methylene-6,7,8,9-tetrahydro-5H-pyrimido[4,5-d]azepine] | > 10000 | 52 | 46 | 15.8 | 1.5 | 501 | 60
9 | Fc1ccc(-c2nc(Cc3ccccc3)nc3c2CCCNC3)cc1 [Example 64, 2-Benzyl-4-(4-fluoro-phenyl)-6,7,8,9-tetrahydro-5H-pyrimido[4,5-c]azepine hydrochloride] | > 10000 | 1300 | 70 | 79.4 | 10 |  | 1300
10 | Fc1ccc(-c2nc(Cc3ccccc3)nc3c2CCNC3)cc1 [Example 76, 2-Benzyl-4-(4-fluoro-phenyl)-5,6,7,8-tetrahydro-pyrido[3,4-d]pyrimidine hydrochloride] | 150 | 315 | 75 | 100 | 9 |  | 300
11 | c1ccc(Cc2nc3c(c(-c4ccccc4)n2)CCNC3)cc1 [Example 78, 2-Benzyl-4-phenyl-5,6,7,8-tetrahydro-pyrido[3,4-d]pyrimidine] | 400 | 900 | 380 | 79.4 | 25 |  | 
12 | CN1CCc2c(nc(Cc3ccccc3)nc2-c2ccc(F)cc2)C1 [Example 82, 2-Benzyl-4-(4-fluoro-phenyl)-7-methyl-5,6,7,8-tetrahydro-pyrido[3,4-d]pyrimidine hydrochloride] | > 10000 | 500 | 20 | 7.94 | 2 | 3980 | 230
13 | CC(C)c1nc(-c2ccc(F)cc2)c2c(n1)C(C)CNC2 (centres unmarked) [Example 100, 4-(4-Fluoro-phenyl)-2-isopropyl-8-methyl-5,6,7,8-tetrahydro-pyrido[4,3-d]pyrimidine hydrochloride] | > 10000 | 900 | 300 | 100 | 14 |  | 
